Experimental data taken from patent US20250144223A1, “PROTEIN DEGRADATION COMPOUND BASED ON NAMPT TARGET PROTEIN AND APPLICATION THEREOF” (GLUETACS THERAPEUTICS (SHANGHAI) CO., LTD., priority 2021, published 2025).

These compounds were tested on Jurkat (assay: CellTiter-Glo Luminescent Cell Viability Assay, half inhibitory concentration (IC50) on tumor cell proliferation). Settings: Homo sapiens, Jurkat cells, 72 h treatment.
Type: cell-based
Outline: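 Jurkat cells seeded at 20,000 cells/well in serum-containing RPMI1640, treated after 24 h with serially diluted compound for 72 h at 37 °C, 5% CO2. Viability read by CellTiter-Glo luminescence; IC50 calculated from growth-inhibition curves.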
`O=C(/C=C/c1cccnc1)NCCCCC1CCN(C(=O)c2ccc(N3CCN(C(=O)CCSc4cccc5c4C(=O)N(C4CCC(=O)NC4=O)C5=O)CC3)cc2)CC1` (stereo not shown) [SIAIS632028, (E)-N-(4-(1-(4-(4-(3-((2-(2,6-dioxopiperidin-3-yl)-1,3-dioxoisoindolin-4-yl)thio)propanoyl)piperazin-1-yl)benzoyl)piperidin-4-yl)butyl)-3-(pyridin-3-yl)acrylamide] was tested, and the IC50 was 105 nM. Work on `O=C(/C=C/c1cccnc1)NCCCCC1CCN(C(=O)c2ccc(N3CCN(C(=O)CCCCSc4cccc5c4C(=O)N(C4CCC(=O)NC4=O)C5=O)CC3)cc2)CC1` (stereo not shown) [SIAIS632029, (E)-N-(4-(1-(4-(4-(5-((2-(2,6-dioxopiperidin-3-yl)-1,3-dioxoisoindolin-4-yl)thio)pentanoyl)piperazin-1-yl)benzoyl)piperidin-4-yl)butyl)-3-(pyridin-3-yl)acrylamide] yielded an IC50 of 28.7 nM. Compound `O=C(/C=C/c1cccnc1)NCCCCC1CCN(C(=O)c2ccc(N3CCN(C(=O)CCCCCSc4cccc5c4C(=O)N(C4CCC(=O)NC4=O)C5=O)CC3)cc2)CC1` (stereo not shown) [SIAIS632030, (E)-N-(4-(1-(4-(4-(6-((2-(2,6-dioxopiperidin-3-yl)-1,3-dioxoisoindolin-4-yl)thio)hexanoyl)piperazin-1-yl)benzoyl)piperidin-4-yl)butyl)-3-(pyridin-3-yl)acrylamide] has an IC50 of 11 nM. Work on `O=C(/C=C/c1cccnc1)NCCCCC1CCN(C(=O)c2ccc(N3CCN(C(=O)CCCCCCSc4cccc5c4C(=O)N(C4CCC(=O)NC4=O)C5=O)CC3)cc2)CC1` (stereo not shown) [SIAIS632031, (E)-N-(4-(1-(4-(4-(7-((2-(2,6-dioxopiperidin-3-yl)-1,3-dioxoisoindolin-4-yl)thio)heptanoyl)piperazin-1-yl)benzoyl)piperidin-4-yl)butyl)-3-(pyridin-3-yl)acrylamide] yielded an IC50 of 24.4 nM. For `O=C(/C=C/c1cccnc1)NCCCCC1CCN(C(=O)c2ccc(N3CCN(C(=O)CCCCCCCSc4cccc5c4C(=O)N(C4CCC(=O)NC4=O)C5=O)CC3)cc2)CC1` (stereo not shown) [SIAIS632032, (E)-N-(4-(1-(4-(4-(8-((2-(2,6-dioxopiperidin-3-yl)-1,3-dioxoisoindolin-4-yl)thio)octanoyl)piperazin-1-yl)benzoyl)piperidin-4-yl)butyl)-3-(pyridin-3-yl)acrylamide], the IC50 was 192 nM. Work on `O=C(/C=C/c1cccnc1)NCCCCC1CCN(C(=O)c2ccc(N3CCN(C(=O)COc4cccc5c4C(=O)N(C4CCC(=O)NC4=O)C5=O)CC3)cc2)CC1` (stereo not shown) [SIAIS632033, (E)-N-(4-(1-(4-(4-(2-((2-(2,6-dioxopiperidin-3-yl)-1,3-dioxoisoindolin-4-yl)oxy)acetyl)piperazin-1-yl)benzoyl)piperidin-4-yl)butyl)-3-(pyridin-3-yl)acrylamide] yielded an IC50 of 78.7 nM. Compound `O=C(/C=C/c1cccnc1)NCCCCC1CCN(C(=O)c2ccc(N3CCN(C(=O)CCCCOc4cccc5c4C(=O)N(C4CCC(=O)NC4=O)C5=O)CC3)cc2)CC1` (stereo not shown) [SIAIS632034, (E)-N-(4-(1-(4-(4-(5-((2-(2,6-dioxopiperidin-3-yl)-1,3-dioxoisoindolin-4-yl)oxy)pentanoyl)piperazin-1-yl)benzoyl)piperidin-4-yl)butyl)-3-(pyridin-3-yl)acrylamide] has an IC50 of 95.1 nM. With `O=C(/C=C/c1cccnc1)NCCCCC1CCN(C(=O)c2ccc(N3CCN(C(=O)CCCCCOc4cccc5c4C(=O)N(C4CCC(=O)NC4=O)C5=O)CC3)cc2)CC1` (stereo not shown) [SIAIS632035, (E)-N-(4-(1-(4-(4-(6-((2-(2,6-dioxopiperidin-3-yl)-1,3-dioxoisoindolin-4-yl)oxy)hexanoyl)piperazin-1-yl)benzoyl)piperidin-4-yl)butyl)-3-(pyridin-3-yl)acrylamide] the IC50 was 8.52 nM. With `O=C(/C=C/c1cccnc1)NCCCCC1CCN(C(=O)c2ccc(N3CCN(C(=O)CCCCCCOc4cccc5c4C(=O)N(C4CCC(=O)NC4=O)C5=O)CC3)cc2)CC1` (stereo not shown) [SIAIS632036, (E)-N-(4-(1-(4-(4-(7-((2-(2,6-dioxopiperidin-3-yl)-1,3-dioxoisoindolin-4-yl)oxy)heptanoyl)piperazin-1-yl)benzoyl)piperidin-4-yl)butyl)-3-(pyridin-3-yl)acrylamide] the IC50 was 29.3 nM. In the case of `O=C(/C=C/c1cccnc1)NCCCCC1CCN(C(=O)c2ccc(N3CCN(CCCCCC#Cc4cccc5c4CN(C4CCC(=O)NC4=O)C5=O)CC3)nc2)CC1` (stereo not shown) [SIAIS632039, (E)-N-(4-(1-(6-(4-(7-(2-(2,6-dioxopiperidin-3-yl)-1-oxoisoindolin-4-yl)hept-6-yn-1-yl)piperazin-1-yl)nicotinoyl)piperidin-4-yl)butyl)-3-(pyridin-3-yl)acrylamide], the IC50 is reported as 2.75 nM. With `O=C(/C=C/c1cccnc1)NCCCCC1CCN(C(=O)c2ccc(N3CCN(CCCCCCC#Cc4cccc5c4CN(C4CCC(=O)NC4=O)C5=O)CC3)nc2)CC1` (stereo not shown) [SIAIS632040, (E)-N-(4-(1-(6-(4-(8-(2-(2,6-dioxopiperidin-3-yl)-1-oxoisoindolin-4-yl)oct-7-yn-1-yl)piperazin-1-yl)nicotinoyl)piperidin-4-yl)butyl)-3-(pyridin-3-yl)acrylamide] the IC50 was 5.67 nM. For `O=C(/C=C/c1cccnc1)NCCCCC1CCN(C(=O)c2ccc(N3CCN(CCCCSc4cccc5c4CN(C4CCC(=O)NC4=O)C5=O)CC3)nc2)CC1` (stereo not shown) [SIAIS632041, (E)-N-(4-(1-(6-(4-(4-((2-(2,6-dioxopiperidin-3-yl)-1-oxoisoindolin-4-yl)thio)butyl)piperazin-1-yl)nicotinoyl)piperidin-4-yl)butyl)-3-(pyridin-3-yl)acrylamide], the IC50 was 1.03 nM. `Cc1ncsc1-c1ccc(CNC(=O)[C@@H]2C[C@@H](O)CN2C(=O)[C@@H](NC(=O)CCCCC(=O)N2CCN(C3CCN(c4ccc(C(=O)N5CCC(CCCCNC(=O)/C=C/c6cccnc6)CC5)nn4)CC3)CC2)C(C)(C)C)cc1` [SIAIS633063, (2S,4R)-1-((S)-3,3-dimethyl-2-(6-oxo-6-(4-(1-(6-(4-(4-((E)-3-(pyridin-3-yl)acrylamido)butyl)piperidine-1-carbonyl)pyridazin-3-yl)piperidin-4-yl)piperazin-1-yl)hexanamido)butanoyl)-4-hydroxy-N-(4-(4-methylthiazol-5-yl)benzyl)pyrrolidine-2-carboxamide] gave an IC50 of 255 nM. With `O=C(/C=C/c1cccnc1)NCCCCC1CCN(C(=O)c2ccc(N3CCC(N4CCN(CCCCCC#Cc5cccc6c5CN(C5CCC(=O)NC5=O)C6=O)CC4)CC3)nc2)CC1` (stereo not shown) [SIAIS633093, (E)-N-(4-(1-(6-(4-(4-(7-(2-(2,6-dioxopiperidin-3-yl)-1-oxoisoindolin-4-yl)hept-6-yn-1-yl)piperazin-1-yl)piperidin-1-yl)nicotinoyl)piperidin-4-yl)butyl)-3-(pyridin-3-yl)acrylamide] the IC50 was 15.8 nM. Compound `O=C(/C=C/c1cccnc1)NCCCCC1CCN(C(=O)c2ccc(N3CCC(N4CCN(CCCCCCC#Cc5cccc6c5CN(C5CCC(=O)NC5=O)C6=O)CC4)CC3)nc2)CC1` (stereo not shown) [SIAIS633094, (E)-N-(4-(1-(6-(4-(4-(8-(2-(2,6-dioxopiperidin-3-yl)-1-oxoisoindolin-4-yl)oct-7-yn-1-yl)piperazin-1-yl)piperidin-1-yl)nicotinoyl)piperidin-4-yl)butyl)-3-(pyridin-3-yl)acrylamide] has an IC50 of 6.18 nM. For `O=C(/C=C/c1cccnc1)NCCCCC1CCN(C(=O)c2ccc(N3CCN(CCCCCCOc4cccc5c4CN(C4CCC(=O)NC4=O)C5=O)CC3)cc2)CC1` (stereo not shown) [SIAIS633097, (E)-N-(4-(1-(4-(4-(6-((2-(2,6-dioxopiperidin-3-yl)-1-oxoisoindolin-4-yl)oxy)hexyl)piperazin-1-yl)benzoyl)piperidin-4-yl)butyl)-3-(pyridin-3-yl)acrylamide], the IC50 was 79 nM.
